Laboratory results published in patent US11844845B2, “Cell penetrating peptide, conjugate comprising same, and composition comprising conjugate” (GEMVAX & KAEL CO., LTD., priority 2012, dated 2023).

Tested on: HeLa cell
Assay: Cell penetration of pep(CPP)-FITC conjugate in HeLa cell line, flow cytometry (FACS)
Assay type: cell-based, Homo sapiens
Conditions: HeLa cells, 20 uM FITC-fused peptide, 37° C. for an hour, control = FITC only
Description: Homo sapiens cervix adenocarcinoma cell line as HeLa cell lines were purchased from ATCC (American Type Cell Culture). The cells were cultured in MEM supplemented with 10% fetal bovine serum (Invitrogen, USA), Earle's salts, non-essential amino acids, sodium pyruvate and 100 μg/ml penicillin and 10 units/ml streptomycin and cultured at 37° C., 5% CO2 incubator.
Flow cytometry and Confocal microscope analysis were performed to compare the between degree of cellular uptake of the cells were treated with SEQ ID NO: 2 to SEQ ID NO: 178, pep (CPP) and control.
The cell line was divided in a 6-well plate and cultured in a medium containing 10% fetal bovine serum (Invitrogen, USA), 100 μg/ml penicillin, 100 units/ml streptomycin at 37° C. 5% CO2 incubator for 12 hours. After washing the cell line with PBS, starvation was induced in a Minimum Essential Medium for an hour. 20 uM of each carrier peptide was treated and cultured at 37° C. for an hour. After repeating the step of washing the cells with PBS for three times, Trypsin-EDTA was treated form 10 mins at 37° C. to separate the carrier peptide on the outside of the cell. cells were collected with refrigerated PBS and centrifugation was performed to repeat the step of washing the cells for three times. After then, the cells were suspended in 0.5 ml of PBS containing 4% Paraformaldehyde and fluorescence of the cells was analyzed using FACS Calibur (Becton Dickinson). The cellular uptake aspect of control and various peptides combined with FITC was compared and analyzed by MFI (Mean Fluorescence Intensity).
Analysis results shown in FIGS. 2 to 29 are given in detail in Table 7 below.

| Substance | cellular uptake, MFI (Mean Fluorescence Intensity) |
| --- | --- |
| AEVRQHREARPALLTSRLRFIPK (listed as Homo sapiens) [Pep-RIA-7] | 16.49 ± 1.35 |
| AEVRQHREARPALLTSRLRFIPKP (listed as Homo sapiens) [Pep-RIA-51] | 15.13 ± 1.03 |
| AEVRQHREARPALLTSRLRFIPKPD (listed as Homo sapiens) [Pep-RIA-52] | 15.49 ± 0.29 |
| AEVRQHREARPALLTSRLRFIPKPDG (listed as Homo sapiens) [Pep-RIA-53] | 15.85 ± 0.74 |
| AEVRQHREARPALLTSRLRFIPKPDGL (listed as Homo sapiens) [Pep-RIA-54] | 13.71 ± 0.11 |
| AEVRQHREARPALLTSRLRFIPKPDGLR (listed as Homo sapiens) [Pep-RIA-55] | 18.75 ± 1.51 |
| AEVRQHREARPALLTSRLRFIPKPDGLRPI (listed as Homo sapiens) [Pep-RIA-57] | 16.75 ± 0.48 |
| ALL (listed as Homo sapiens) [Pep-RIA-145] | 13.85 ± 0.38 |
| ALLT (listed as Homo sapiens) [Pep-RIA-144] | 14.54 ± 0.21 |
| ALLTS (listed as Homo sapiens) [Pep-RIA-143] | 13.24 ± 0.37 |
| ALLTSR (listed as Homo sapiens) [Pep-RIA-142] | 13.23 ± 0.57 |
| ALLTSRLR (listed as Homo sapiens) [Pep-RIA-107] | 16.41 ± 1.36 |
| ALLTSRLRF (listed as Homo sapiens) [Pep-RIA-140] | 21.18 ± 0.11 |
| ALLTSRLRFIP (listed as Homo sapiens) [Pep-RIA-139] | 34.19 ± 1.43 |
| ALLTSRLRFIPK (listed as Homo sapiens) [Pep-RIA-94] | 21.07 ± 1.56 |
| ARP (listed as Homo sapiens) [Pep-RIA-120] | 10.04 ± 0.53 |
| ARPA (listed as Homo sapiens) [Pep-RIA-119] | 11.19 ± 0.61 |
| ARPAL (listed as Homo sapiens) [Pep-RIA-118] | 11.41 ± 1.03 |
| ARPALL (listed as Homo sapiens) [Pep-RIA-117] | 15.06 ± 0.58 |
| ARPALLT (listed as Homo sapiens) [Pep-RIA-116] | 11.32 ± 0.99 |
| ARPALLTS (listed as Homo sapiens) [Pep-RIA-115] | 12.13 ± 0.34 |
| ARPALLTSRL (listed as Homo sapiens) [Pep-RIA-113] | 11.54 ± 1.57 |
| ARPALLTSRLR (listed as Homo sapiens) [Pep-RIA-112] | 15.96 ± 1.24 |
| ARPALLTSRLRF (listed as Homo sapiens) [Pep-RIA-111] | 20.53 ± 0.21 |
| ARPALLTSRLRFI (listed as Homo sapiens) [Pep-RIA-110] | 11.89 ± 0.68 |
| ARPALLTSRLRFIP (listed as Homo sapiens) [Pep-RIA-104] | 22.51 ± 0.96 |
| ARPALLTSRLRFIPK (listed as Homo sapiens) [Pep-RIA-91] | 19.96 ± 0.51 |
| EAEVRQHREARPALLTSRLRFIPK (listed as Homo sapiens) [Pep-RIA-8] | 14.12 ± 0.79 |

| Substance | cellular uptake, MFI (Mean Fluorescence Intensity) |
| --- | --- |
| EAR (listed as Homo sapiens) [Pep-RIA-90] | 9.77 ± 0.97 |
| EARP (listed as Homo sapiens) [Pep-RIA-89] | 9.13 ± 0.77 |
| EARPA (listed as Homo sapiens) [Pep-RIA-88] | 8.89 ± 0.61 |
| EARPAL (listed as Homo sapiens) [Pep-RIA-87] | 9.6 ± 1.76 |
| EARPALL (listed as Homo sapiens) [Pep-RIA-86] | 9.95 ± 2.34 |
| EARPALLT (listed as Homo sapiens) [Pep-RIA-85] | 10.1 ± 0.34 |
| EARPALLTS (listed as Homo sapiens) [Pep-RIA-84] | 10.32 ± 0.49 |
| EARPALLTSR (listed as Homo sapiens) [Pep-RIA-83] | 10.27 ± 0.25 |
| EARPALLTSRL (listed as Homo sapiens) [Pep-RIA-82] | 10.12 ± 0.95 |
| EARPALLTSRLR (listed as Homo sapiens) [Pep-RIA-81] | 14.63 ± 0.22 |
| EARPALLTSRLRF (listed as Homo sapiens) [Pep-RIA-80] | 14.7 ± 0.79 |
| EARPALLTSRLRFI (listed as Homo sapiens) [Pep-RIA-79] | 10.73 ± 1.18 |
| EARPALLTSRLRFIP (listed as Homo sapiens) [Pep-RIA-78] | 13.95 ± 0.57 |
| EARPALLTSRLRFIPKP (listed as Homo sapiens) [Pep-RIA-64] | 15.51 ± 0.58 |
| EARPALLTSRLRFIPKPD (listed as Homo sapiens) [Pep-RIA-65] | 12.84 ± 1.11 |
| EARPALLTSRLRFIPKPDG (listed as Homo sapiens) [Pep-RIA-66] | 13.46 ± 0.19 |
| EARPALLTSRLRFIPKPDGLR (listed as Homo sapiens) [Pep-RIA-68] | 14.94 ± 1.88 |
| EARPALLTSRLRFIPKPDGLRP (listed as Homo sapiens) [Pep-RIA-69] | 13.72 ± 0.68 |
| EARPALLTSRLRFIPKPDGLRPI (listed as Homo sapiens) [Pep-RIA-70] | 16.32 ± 0.44 |
| EARPALLTSRLRFIPKPDGLRPIV (listed as Homo sapiens) [Pep-RIA-71] | 17.21 ± 0.52 |
| EARPALLTSRLRFIPKPDGLRPIVN (listed as Homo sapiens) [Pep-RIA-72] | 21.7 ± 1.21 |
| EARPALLTSRLRFIPKPDGLRPIVNM (listed as Homo sapiens) [Pep-RIA-73] | 24.33 ± 0.89 |
| EARPALLTSRLRFIPKPDGLRPIVNMD (listed as Homo sapiens) [Pep-RIA-74] | 21.77 ± 2.01 |
| EARPALLTSRLRFIPKPDGLRPIVNMDY (listed as Homo sapiens) [Pep-RIA-75] | 26.21 ± 1.29 |
| EARPALLTSRLRFIPKPDGLRPIVNMDYV (listed as Homo sapiens) [Pep-RIA-76] | 22.07 ± 0.64 |
| EARPALLTSRLRFIPKPDGLRPIVNMDYVV (listed as Homo sapiens) [Pep-RIA-77] | 87.67 ± 0.93 |
| ELSEAEVRQHREARPALLTSRLRFIPK (listed as Homo sapiens) [Pep-RIA-11] | 15.22 ± 0.23 |
